Test results as given in patent publication US11946094B2, “Combination therapies and methods of use thereof” (Augusta University Research Institute, Inc., priority 2017, dated 2024).
“Also recorded” adds a separate entry of the source.

Tested on: OVCAR-8 cells
Experiment: Drug-siRNA combination screen: 346-compound anticancer library at 100 nM, CCK-8 viability
Conditions: OVCAR-8; for Score (sum of observed SD values for 18 genes): drug 100 nM plus siRNA knockdown of each of 18 genes, distance VAB−VA×VB in SD, single gene contributes at most +5 / −5, negative = synergy, positive = antagonism; for synergy / antagonism of drug with gene knockdowns, in words / number of genes (of 18) whose knockdown synergizes with the drug: drug 100 nM; for synergy / antagonism of drug with gene knockdowns, in words: panel of 18 siRNA knockdowns; for number of genes (of 18) whose knockdown synergizes with the drug: siRNA knockdown
Description: Comparisons of drug effect were performed using data generated on the same day. A minimum of two replicates was performed with drug library screening and a minimum of three replicates was done for all other tests.
Combinatorial effects were classified using two measures of combinatorial action: 1) the coefficient of drug interaction (CDI), defined as (VAB/(VA×VB)) and 2) the distance in standard deviation (SD) of VAB−(VA×VB). […] In confirmation studies significance was determined using a Student's T-test (two-tailed, unpaired) with p<0.05 indicating significance.
To measure the effect of a gene on drug effect, comparisons were made between high expressers of each gene and the wild type cells exposed to sham reagents.
In theory, CDI<1 is indicative of synergy while CDI>1 is indicative of antagonism or additive effect in a multiplicative model.

For `C[C@H](NC(=O)Cc1cc(F)cc(F)c1)C(=O)N[C@@H]1C(=O)N(C)c2ccccc2-c2ccccc21` [0YO-1027], the “Score (sum of observed SD values for 18 genes)” value was −38.72 SD.
`COc1cc2c(cc1O)CC[C@@H]1[C@@H]2CC[C@]2(C)[C@@H](O)CC[C@@H]12` [2-Methoxyestradiol] was tested, and the “Score (sum of observed SD values for 18 genes)” value was −31.84 SD.
For `Cn1cnc(N)c2ncnc1-2` [3-Methyladenine], the “Score (sum of observed SD values for 18 genes)” value was −24.92 SD.
In the case of `CO[C@H]1/C=C\C=C(/C)C(=O)NC2=CC(=O)C(NCCN(C)C)=C(C[C@@H](C)C[C@H](OC)[C@H](O)[C@@H](C)/C=C(\C)[C@@H]1OC(N)=O)C2=O.Cl` [17 - DMAG HCI], the “Score (sum of observed SD values for 18 genes)” value is reported as 19.7 SD.
In the case of `C=CCNC1=C2C[C@@H](C)C[C@H](OC)[C@H](O)[C@@H](C)/C=C(\C)[C@H](OC(N)=O)[C@@H](OC)/C=C\C=C(/C)C(=O)NC(=CC1=O)C2=O` [17-AAG], the “Score (sum of observed SD values for 18 genes)” value is reported as −6.69 SD.
In the case of `N#Cc1c(O)c2c(-c3ccc(-c4ccccc4O)cc3)csc2[nH]c1=O` [A-769662], the “Score (sum of observed SD values for 18 genes)” value is reported as −22.81 SD.
For `CN(C)CC[C@H](CSc1ccccc1)Nc1ccc(S(=O)(=O)NC(=O)c2ccc(N3CCN(Cc4ccccc4-c4ccc(Cl)cc4)CC3)cc2)cc1[N+](=O)[O-]` [ABT-737], the “Score (sum of observed SD values for 18 genes)” value was −5.9 SD.
`COc1ccc(S(=O)(=O)Nc2cccnc2Nc2ccc(O)cc2)cc1` [ABT-751] was tested, and the “Score (sum of observed SD values for 18 genes)” value was −13.93 SD.
In the case of `CN(C)Cc1ccc(-c2nc3cccc4c3n2CCNC4=O)cc1` [AG14361], the “Score (sum of observed SD values for 18 genes)” value is reported as 2.72 SD.
`Cc1csc(-c2nnc(Nc3ccc(Oc4ncccc4-c4ccnc(N)n4)cc3)c3ccccc23)c1` [AMG 900] was tested, and the “Score (sum of observed SD values for 18 genes)” value was 11.64 SD.
`O=C(/C=C/c1cccnc1)NCCCCC1CCN(C(=O)c2ccccc2)CC1` [APO866] was tested, and the “Score (sum of observed SD values for 18 genes)” value was 7.8 SD.
With `CC(C)[C@H](C(=O)Nc1ccc(C(=O)NO)cc1)c1ccccc1` [AR-42] the “Score (sum of observed SD values for 18 genes)” value was −36.88 SD, the “synergy / antagonism of drug with gene knockdowns, in words” value (shortened to “synergy / antagonism of drug”) was “mostly synergistic” and the “number of genes (of 18) whose knockdown synergizes with the drug” value was 10 genes.
With `CN[C@@H](C)C(=O)N[C@H]1CN(C(=O)CC(C)C)CC[C@H]2CC[C@@H](C(=O)NC(c3ccccc3)c3ccccc3)N2C1=O` [AT406] the “Score (sum of observed SD values for 18 genes)” value was −38.03 SD.
For `O=C(NC1CCNCC1)c1n[nH]cc1NC(=O)c1c(Cl)cccc1Cl` [AT7519], the “Score (sum of observed SD values for 18 genes)” value was −24.02 SD.
With `O=C(Nc1c[nH]nc1-c1nc2ccc(CN3CCOCC3)cc2[nH]1)NC1CC1` [AT9283] the “Score (sum of observed SD values for 18 genes)” value was 12.54 SD.
With `CCNC(=O)c1noc(-c2cc(C(C)C)c(O)cc2O)c1-c1ccc(CN2CCOCC2)cc1` [AUY922] the “Score (sum of observed SD values for 18 genes)” value was 8.46 SD.
With `Cc1ccc(NC(=O)c2cccc(C(C)(C)C#N)c2)cc1Nc1ccc2ncn(C)c(=O)c2c1` [AZ628] the “Score (sum of observed SD values for 18 genes)” value was −43.85 SD and the “synergy / antagonism of drug” value was “synergistic with knockdown of ten genes”.
In the case of `NC(=O)Nc1cc(-c2cccc(F)c2)sc1C(=O)N[C@H]1CCCNC1` [AZD7762], the “Score (sum of observed SD values for 18 genes)” value is reported as −43.68 SD and the “synergy / antagonism of drug” value is reported as “Frequently among the top synergizing pairs; also recorded: high level of synergism”.
`COc1ccc(-c2ccc3c(N4CCOC[C@@H]4C)nc(N4CCOC[C@@H]4C)nc3n2)cc1CO` [AZD8055] was tested, and the “Score (sum of observed SD values for 18 genes)” value was -51.01 SD.
For `CN(C)C/C=C/C(=O)Nc1cc2c(Nc3ccc(F)c(Cl)c3)ncnc2cc1O[C@H]1CCOC1` [Afatinib], the “Score (sum of observed SD values for 18 genes)” value was -54.76 SD.
With `COc1cc(Nc2ncc3c(n2)-c2ccc(Cl)cc2C(c2c(F)cccc2OC)=NC3)ccc1C(=O)O` [Alisertib] the “Score (sum of observed SD values for 18 genes)” value was −2.8 SD.
`CCC1(c2ccc(N)cc2)CCC(=O)NC1=O` (centres unmarked) [Aminoglutethimide] was tested, and the “Score (sum of observed SD values for 18 genes)” value was −9.32 SD.
`S=C(NCc1ccc2c(c1)OCO2)N1CCN(c2ncnc3c2oc2ccccc23)CC1` [Amuvatinib] was tested, and the “Score (sum of observed SD values for 18 genes)” value was 12.37 SD.
With `Cl.O=C1CN2Cc3c(ccc(Cl)c3Cl)N=C2N1` [Anagrelide HCI] the “Score (sum of observed SD values for 18 genes)” value was −8.01 SD.
`CC(=O)Nc1ccc(OC[C@](C)(O)C(=O)Nc2ccc([N+](=O)[O-])c(C(F)(F)F)c2)cc1` [Andarine] was tested, and the “Score (sum of observed SD values for 18 genes)” value was −7.28 SD.
With `C[C@@H](O[C@H]1OCCN(Cc2n[nH]c(=O)[nH]2)[C@H]1c1ccc(F)cc1)c1cc(C(F)(F)F)cc(C(F)(F)F)c1` [Aprepitant] the “Score (sum of observed SD values for 18 genes)” value was −23.29 SD.
In the case of `Cn1cnc([N+](=O)[O-])c1Sc1ncnc2nc[nH]c12` [Azathioprine], the “Score (sum of observed SD values for 18 genes)” value is reported as −28.48 SD.
For `Cc1ccc(S(=O)(=O)/C=C/C#N)cc1` [BAY 11-7082], the “Score (sum of observed SD values for 18 genes)” value was −5.7 SD.
For `Cn1c(=O)n(-c2ccc(C(C)(C)C#N)cc2)c2c3cc(-c4cnc5ccccc5c4)ccc3ncc21` [BEZ235], the “Score (sum of observed SD values for 18 genes)” value was −35.65 SD.
In the case of `CC[C@@H]1C(=O)N(C)c2cnc(Nc3ccc(C(=O)NC4CCN(C)CC4)cc3OC)nc2N1C1CCCC1` [BI2536], the “Score (sum of observed SD values for 18 genes)” value is reported as 12.6 SD.
For `C/C(=C\C(=O)Nc1ccccc1C(=O)O)c1ccc2ccccc2c1` [BIBR 1532], the “Score (sum of observed SD values for 18 genes)” value was −16.4 SD.
With `COc1c(C)cnc(Cn2cnc3c(Cl)nc(N)nc32)c1C` [BIIB021] the “Score (sum of observed SD values for 18 genes)” value was −33.01 SD and the “synergy / antagonism of drug” value was “Frequently among the top synergizing pairs”.
In the case of `CCOc1ccn(-c2ccc(F)cc2)c(=O)c1C(=O)Nc1ccc(Oc2ccnc(N)c2Cl)c(F)c1` [BMS 777607], the “Score (sum of observed SD values for 18 genes)” value is reported as −14.73 SD.
In the case of `Nc1nccc(Oc2ccc(NC(=O)c3c[nH]cc(-c4ccc(F)cc4)c3=O)cc2F)c1Cl` [BMS 794833], the “Score (sum of observed SD values for 18 genes)” value is reported as −23.46 SD.
For `Cc1c(NC(=O)OC[C@@H]2COCCN2)cn2ncnc(Nc3ccc4c(cnn4Cc4cccc(F)c4)c3)c12` [BMS-599626], the “Score (sum of observed SD values for 18 genes)” value was −40.89 SD and the “synergy / antagonism of drug” value was “significant synergy with nine or more genes”.
For `C[C@H]1COC2(CCN(c3nc(=O)c4cc(C(F)(F)F)cc([N+](=O)[O-])c4s3)CC2)O1` [BTZ043], the “Score (sum of observed SD values for 18 genes)” value was −13.06 SD.
`O=C(NCCCNc1nc(Nc2cccc(NC(=O)N3CCCC3)c2)ncc1I)c1cccs1` [BX-795] was tested, and the “Score (sum of observed SD values for 18 genes)” value was −14.94 SD.
`CCN(CCCOc1ccc2c(Nc3cc(CC(=O)Nc4cccc(F)c4)n[nH]3)ncnc2c1)CCOP(=O)(O)O` [Barasertib] was tested, and the “Score (sum of observed SD values for 18 genes)” value was 20.03 SD.
For `C=C(c1ccc(C(=O)O)cc1)c1cc2c(cc1C)C(C)(C)CCC2(C)C` [Bexarotene], the “Score (sum of observed SD values for 18 genes)” value was −1.35 SD.
For `CC(O)(CS(=O)(=O)c1ccc(F)cc1)C(=O)Nc1ccc(C#N)c(C(F)(F)F)c1` (centres unmarked) [Bicalutamide], the “Score (sum of observed SD values for 18 genes)” value was −23.24 SD.
In the case of `COc1cc(Nc2c(C#N)cnc3cc(OCCCN4CCN(C)CC4)c(OC)cc23)c(Cl)cc1Cl` [Bosutinib], the “Score (sum of observed SD values for 18 genes)” value is reported as −23.5 SD.
With `Cc1cc2c(F)c(Oc3ncnn4cc(OC[C@@H](C)O)c(C)c34)ccc2[nH]1` [Brivanib] the “Score (sum of observed SD values for 18 genes)” value was −14.38 SD.
`Nc1cc(C(F)(F)F)c(-c2cc(N3CCOCC3)nc(N3CCOCC3)n2)cn1` [Buparlisib] was tested, and the “Score (sum of observed SD values for 18 genes)” value was 8.79 SD.
With `CC[C@H](Nc1ncnc2[nH]cnc12)c1nc2cccc(F)c2c(=O)n1-c1ccccc1` [CAL-101] the “Score (sum of observed SD values for 18 genes)” value was −27.89 SD.
With `CN1CCN(c2cccc(Nc3nc4c(-c5ccc(S(C)(=O)=O)cc5)cccn4n3)c2)CC1` [CEP33779] the “Score (sum of observed SD values for 18 genes)” value was −27.66 SD.
With `CS(=O)(=O)N1CCc2c(-c3cnc(N)nc3)nc(N3CCOCC3)nc21` [CH5132799] the “Score (sum of observed SD values for 18 genes)” value was 15.96 SD.
In the case of `Cc1c[nH]c(-c2cnc(NCCNc3ccc(C#N)cn3)nc2-c2ccc(Cl)cc2Cl)n1` [CHIR-99021], the “Score (sum of observed SD values for 18 genes)” value is reported as −2.4 SD.
For `O=C(NOCC1CC1)c1ccc(F)c(F)c1Nc1ccc(I)cc1Cl` [CI-1040], the “Score (sum of observed SD values for 18 genes)” value was −45.66 SD and the “synergy / antagonism of drug” value was “among the top synergistic compounds”.
For `COc1cc2ncnc(-n3nc(-c4ccccn4)nc3N)c2cc1OC` [CP-466722], the “Score (sum of observed SD values for 18 genes)” value was 2.79 SD.
For `C#Cc1cccc(Nc2ncnc3cc(OC)c(OCCCCCCC(=O)NO)cc23)c1` [CUDC-101], the “Score (sum of observed SD values for 18 genes)” value was −46.83 SD, the “synergy / antagonism of drug” value was “mostly synergistic” and the “number of genes (of 18) whose knockdown synergizes with the drug” value was 11 genes.
In the case of `Cc1nc(N)sc1-c1ccnc(Nc2ccc(N3CCOCC3)cc2)n1` [CYC116], the “Score (sum of observed SD values for 18 genes)” value is reported as −28.81 SD.
`Cc1ccc([C@@H]2O[C@H](CO)[C@@H](O)[C@H](O)[C@H]2O)cc1Cc1ccc(-c2ccc(F)cc2)s1` [Canagliflozin] was tested, and the “Score (sum of observed SD values for 18 genes)” value was −25.46 SD.
`N.N.O=C([O-])C1(C(=O)[O-])CCC1.[Pt+2]` [Carboplatin] was tested, and the “Score (sum of observed SD values for 18 genes)” value was −24.62 SD.
With `CCCCCCNC(=O)n1cc(F)c(=O)[nH]c1=O` [Carmofur] the “Score (sum of observed SD values for 18 genes)” value was −18.23 SD.
`COc1cc2c(Oc3ccc4[nH]c(C)cc4c3F)ncnc2cc1OCCCN1CCCC1` [Cediranib] was tested, and the “Score (sum of observed SD values for 18 genes)” value was −11.55 SD.
In the case of `Cc1cc(O)c2c(c1)C(=O)c1cccc(O)c1C2=O` [Chrysophanol], the “Score (sum of observed SD values for 18 genes)” value is reported as −5.16 SD.
For `N.N.[Cl][Pt][Cl]` [Cisplatin], the “Score (sum of observed SD values for 18 genes)” value was −21 SD.
`COC1=C(OC)C(=O)C(C/C=C(\C)CC/C=C(\C)CC/C=C(\C)CC/C=C(\C)CC/C=C(\C)CC/C=C(\C)CC/C=C(\C)CC/C=C(\C)CC/C=C(\C)CCC=C(C)C)=C(C)C1=O` [Coenzyme Q10] was tested, and the “Score (sum of observed SD values for 18 genes)” value was −4.69 SD.
For `CC1(COc2ccc3c(c2)ncn3-c2ccc3cccc(N4CCC(N)CC4)c3n2)COC1` [Crenolanib], the “Score (sum of observed SD values for 18 genes)” value was −18.09 SD.
In the case of `CC1=C2C[C@H]3[C@@H](CC=C4C[C@@H](O)CC[C@@]43C)[C@@H]2CC[C@]12O[C@@H]1C[C@H](C)CN[C@H]1[C@H]2C` [Cyclopamine], the “Score (sum of observed SD values for 18 genes)” value is reported as 3.03 SD.
In the case of `NC(=O)CC[C@@H](N)C(=O)O` [D-glutamine], the “Score (sum of observed SD values for 18 genes)” value is reported as 0.27 SD.
`C[C@H](NC(=O)Cc1cc(F)cc(F)c1)C(=O)N[C@H](C(=O)OC(C)(C)C)c1ccccc1` [DAPT-(GSI-IX)] was tested, and the “Score (sum of observed SD values for 18 genes)” value was 12.69 SD.
